The subject of one data set is zebrafish embryos. In words: In vivo toxicity in zebrafish embryos. Also noted: species or system zebrafish (Danio rerio). The conditions noted are these: 5 dpf; for embryo phenotype: 0.1 μM and 1 μM; for morphological score: score 5 normal to 0.5 absent; for embryo death at the highest dose: 100 μM. How it is done: The in vivo toxicity was evaluated using the predictive zebrafish animal model, which is suitable for screening drugs for potential toxicity in the nervous, cardiovascular, and digestive system. Zebrafish embryos were exposed to increasing concentrations (from 0.1 to 100 μM) of compounds (R/S)-1c and (R/S)-1d immediately after the eggs’ fertilization. The mortality rate and the kind of developmental deficiencies were evaluated at 5 days post-fertilization (dpf). […] A decrease in the embryo vitality rate and an increase in the entity of damages to the vital structures became more evident at higher concentrations (Figure 7A, Table S2). Compound (R/S)-1c induced embryo death (100% of embryos) at 10 μM, whereas (R/S)-1d caused the death of 5 embryos out of 10 at the same concentration. Moreover, among the living embryos, morphological abnormalities, mainly affecting the shape of the tail, heart, and skin pigmentation, were observed (Figure 7B–E, Table S2). […] Furthermore, the swim bladder was not well inflated, and oedema was evident.
The Tg(GFAP:GFP) zebrafish (Danio rerio) were a kind gift from the Department of Biology, University of Padova (Italy), and were maintained in a re-circulatory system at 28 °C in a light/dark cycle of 14/10 h. They were fed three times a day with dry food and Artemia. The zebrafish embryos and larvae were used for the experiments until 5 days post-fertilization (dpf); mating between 2 females and 1 male was set up the day before the test. The eggs were preserved from predation by adult fish using a plastic separator in the tanks. The eggs were collected right after spawning and used in the teratogenicity experiments. The zebrafish husbandry procedures were performed according to the Directive 2010/63/EU and in compliance with the local animal welfare regulations (authorization n. prot. 18,311/2016; released by the “Comune di Meldola”, 9 November 2016).
The toxicity evaluation was performed as previously reported. Briefly, the eggs were collected, rinsed out with embryo medium (for 1 L of distilled water: 0.1 g sodium bicarbonate, 0.1 g instant ocean, 0.19 g calcium sulphate) and put in different Petri dishes with the same medium; only the unscathed embryos were selected. Generally, 8 embryos per untreated control and treatment concentrations were cultured. The eggs were treated with an increasing concentration of (R/S)-1c and (R/S)-1d, starting from 1 h post-fertilization. They were incubated at 28 °C for about 5 days (without changing the media) in order to allow exposure to the compounds throughout all development stages. The teratogenic effects were evaluated after 5 days from treatment with morphological and viability observations. The experiment was performed in octuplicate, and the data were assessed using a sample score sheet, as reported by Brannen KC and colleagues.

Data set [1] can be described thus: In vitro metabolic stability in mouse plasma. As to conditions: after 240 min of incubation. The format is in vitro ADME. How it is done:
(§1) The in vitro metabolic stability of compound (R/S)-1d was evaluated in mouse plasma and hepatic microsomes.

Data set [2] in a line: In vitro metabolic stability in mouse liver microsomes. The format is in vitro ADME. As to conditions: oxidative conditions. On the procedure: as §1
Mouse liver microsomes (Sigma Aldrich, CD-1 male, pooled) at 0.5 mg/mL were preincubated with the test compound (R/S)-1d dissolved in DMSO at 1 μM in phosphate buffer 50 mM, pH 7.4, and 3 mM MgCl2 for 10 min at 37 °C [75]. The reaction was then started by adding the cofactor mixture solution (NADP, glucose-6-phosphate, glucose-6-phosphate dehydrogenase in 2% NaHCO3). The samples were taken at 0, 10, 30, 45, and 60 min and added to acetonitrile to stop the reaction (n = 3). The samples were then centrifuged, and the supernatant was analyzed by LC-MS/MS to quantify the amount of compound. A control sample without cofactor was always added to check the chemical stability of the test compound. Two reference compounds of known metabolic stability, 7-ethoxycoumarin (7-EC) and propranolol, were present in parallel testing. A fixed concentration of verapamil was added to every sample as an internal standard for LC-MS/MS analyses. The percentage of the area of the test compound remaining at the various incubation times was calculated with respect to the area of the compound at time 0 min.
The intrinsic clearance (Cli) was calculated by the equation: Cli (μL/min/mg) = k/microsomal conc. × 1000 where k is the rate constant (min^−1) and the microsomal protein conc. = 0.5 mg protein/mL. The rate constant k (min^−1), derived for the exponential decay equation (peak area/IS vs. time), was used to calculate the rate of Cli.
The samples were analyzed under the following conditions: UFLC LC-20 Shimadzu coupled with an API 3200 triple-quadrupole (ABSciex); eluents, (phase A) water + 0.1% trifluoroacetic acid (TFA), (phase B) CH3CN + 0.1% TFA; flow rate, 0.3 mL/min; column, Gemini-Nx 5 μm C18 110A (50 × 2.00 mm) at 35 °C; and injection volume, 5 μL. LC–MS/MS analyses were carried out using an ESI(+) interface in a multiple reaction monitoring mode (MRM). The conditions and MRM transitions applied to the compounds are described in Table 3. […]
In general terms: Liver microsomes are vesicles of endoplasmic reticulum, rich in cytochrome P450 enzymes.

In a further data set the test system is rats. The data set can be described thus: Chung's neuropathic pain model (spinal nerve ligation), von Frey mechanical allodynia. The format is in vivo, rat.
A further data set deals with mice. The data set can be described thus: Formalin-induced licking paw test. The format is in vivo. The conditions noted are these: Mus musculus.

This note sets out measurements from article PMC10386076, “Discovery of RC-752, a Novel Sigma-1 Receptor Antagonist with Antinociceptive Activity: A Promising Tool for Fighting Neuropathic Pain” (Pharmaceuticals, 2023).

Where two headings read alike, the source gives them in different places.

Description for mice: This is a model of persistent pain in which the nociceptive response produced by formalin is quantified by measuring the time spent by the mouse licking the injected paw. The intraplantar administration of formalin (2%, 20 μL) produces a biphasic nocifensive behavioral response (i.e., biting or licking the injected hind paw). The acute nociceptive phase, reflecting the chemical activation of sensory C-fibers, lasts for the first 5 min, while the second inflammatory phase takes place between 20 and 30 min and corresponds with the development of nociceptive sensitization in the dorsal horn of the spinal cord.
ICR male mice weighing 20–25 g (5 weeks old) and SD rats weighing 200–250 g (7 weeks old) were used in the experiments. […]
The formalin-induced licking paw test was modified from the method described by Dubuisson and Dennis [79]. […] Each mouse was then placed in an individual clear plastic observational chamber (15 × 15 × 15), and the pain response was recorded for a period of 30 min. The summation of time (in seconds) spent in licking and biting responses of the injected paw during each 5 min block was measured as an indicator of the pain response. The first period (early phase) was recorded 0–5 min after the injection of formalin, and the second period (late phase) was recorded 20–30 min after the injection. […] The data were expressed as mean values (SEM). […]
Excerpt for rats: This procedure involves the surgical binding or tying off of the left L5 and L6 spinal nerves in rats and causes long-lasting behavioral signs of mechanical allodynia and ongoing pain. Mechanical allodynia refers to the perception of pain caused by normally non-painful stimuli, such as touch or pressure. […] Mechanical stimulation was then induced using von Frey filaments, a set of calibrated nylon fibers that are used to apply mechanical pressure to the skin or other tissues to measure pain sensitivity. The mechanical threshold for pain was established with the “up and down method”.
ICR male mice weighing 20–25 g (5 weeks old) and SD rats weighing 200–250 g (7 weeks old) were used in the experiments. All the animals were purchased from SAMTACO (Osan-si, Korea). Six mice/group and eight rats/group were used for this study. Four groups of mice were utilized for the assessment of the antinociceptive activity in the formalin test (one vehicle and three doses; 1, 10, and 20 mg/kg given i.p.), while five groups of rats were used for the assessment of the antinociceptive activity in Chung’s neuropathic pain model (one vehicle and four doses; 5, 10, 25 and 50 mg/kg given i.p.). The ICR mice and SD rats were maintained on a 12 hr light–dark cycle (light on between 7:00 p.m. and 7:00 a.m.) and allowed free access to food and water. The temperature and humidity of the animal room were maintained at 22 ± 2 °C and 50 ± 5%, respectively. In this study, we followed the national guidelines for conducting animal experiments. […] All efforts were made to minimize animal suffering and reduce the number of animals used.
Ligation of the left L5 and L6 spinal nerves in the rats was used as an experimental model of neuropathic pain. […] The surgical procedure was performed according to the method described by Kim and Chung [80]. The left L5 spinal nerve was isolated and ligated tightly with 6–0 black silk. The wound was closed in anatomical layers, with the skin being closed with stainless steel wound clips. The animals were then allowed to recover after the surgery. The behavioral signs representing neuropathic pain (mechanical allodynia) were examined in all the rats for 2 weeks postoperatively. The mechanical withdrawal threshold to the application of a von Frey filament (Stoelting, Wood Dale, IL, USA) was measured by using the up–down method [81].The most sensitive area was first determined by poking various areas of the paw with a von Frey hair. Next, the actual test was conducted by gently poking various areas of the spot with the filament. […] The frequency of foot withdrawal expressed as a percentage was used as the index of mechanical allodynia. […] The results were calculated using the one-way analysis of variance (ANOVA) followed by Bonferroni’s post hoc test. […]

As to `CN(CCC(CO)c1ccc(-c2ccccc2)cc1)Cc1ccccc1` (centres unmarked) [Compound 1c, 3-([1,1’-biphenyl]-4-yl)-N-benzyl-4-hydroxy-N-methylbutanamine], in the data set with zebrafish embryos, the embryo phenotype entry is “normal and vital phenotype”; the “embryo death at the highest dose” value was “death of all the zebrafish embryos”. The morphological score in the data set on zebrafish embryos (0.1 μM) is reported as less than 4. The embryo death in the data set on zebrafish embryos (10 μM) was 100 % of embryos.

With `OCC(CCN1CCCCC1)c1ccc(-c2ccccc2)cc1` (centres unmarked) [Compound 1d, 2-([1,1’-biphenyl]-4-yl)-4-(piperidin-1-yl)butan-1-ol], the compound remaining unaltered entry in data set [1] was “approximately 100%”. In addition, the half-life at 1 μM in data set [2] (male, CD-1, liver microsomes (pooled), pH 7.4, mouse hepatic microsomes 0.5 mg/mL, 1 μM) turned out to be 7.2 ± 0.3 min. In data set [2] (mouse hepatic microsomes 0.5 mg/mL, 1 μM), the Cli turned out to be 192 ± 7 µL/min/mg. The “in vitro clearance classification” value in data set [2] (mouse hepatic microsomes) is “high clearance”. In addition, in the data set on rats (i.p. 50 mg/Kg), the “time the antinociceptive effect was extended” value is “up to 90 min”. The “antinociceptive effect (mechanical allodynia)” value with rats (i.p. 5 and 10 mg/Kg) is reported as “No significative effect”; in the data set with rats (i.p. 25 and 50 mg/Kg, 30 min after administration), “restore the normal nociceptive functionality”. The “time the antinociceptive effect was sustained” value with rats (i.p. 25 and 50 mg/Kg) is on record as “up to 60 min”. Further, the embryo phenotype entry in the data set with zebrafish embryos was “normal and vital phenotype”. Besides, the values for the morphological score with zebrafish embryos (0.1 μM), in the data set with zebrafish embryos (1 μM) and with zebrafish embryos (10 μM) were 5, 4 and 1, respectively. The death of embryos with zebrafish embryos (10 μM) is on record as 5 embryos out of 10. In addition, in the data set with zebrafish embryos, the “embryo death at the highest dose” value is “death of all the zebrafish embryos”. In addition, the ED50 in the data set on mice (read-out: ED50, first phase of the formalin test) came out at 13 mg/kg; in the data set on mice (mice, i.p. 1, 10, 20 mg/Kg 30 min before formalin, 20–30 min, paw licking time, read-out: ED50, second phase of the formalin test) it was 2.17 mg/kg.

One may read the half-life as the time needed for the level to fall by half in the phase considered. The term ED50 denotes the midpoint of the dose-response relation.
